From article PMC6933146 (Biotechnology Reports, 2019) come the findings set out here.

Common to all, as to assay type: biochemical, Alcaligenes faecalis
Assay [1] deals with LAC1* (purified extracellular laccase). Kind of assay: spectrophotometric oxidation at […] nm, Lineweaver-Burk. The conditions noted are these: pH 8.0, 80 °C, 50-500 μM substrate.
Assay [2] shares this test system. Briefly: spectrophotometric oxidation. The conditions noted are these: optimized conditions (optimum pH for ABTS 5.5), 50-500 μM substrate.
For assay [3] the test system is unchanged. Briefly: spectrophotometric oxidation. As to conditions: optimized conditions (optimum pH for guaiacol 8), 50-500 μM substrate.

For the compound `COc1cccc(OC)c1O` [2,6-DMP], the Km in assay [1] is 480 µM.

`CCn1c(=NN=c2sc3cc(S(=O)(=O)O)ccc3n2CC)sc2cc(S(=O)(=O)O)ccc21` [ABTS]: the Km in assay [2] was found to be 500 µM.

Regarding `COc1ccccc1O` [Guaiacol], in assay [3], the Km is 1000 µM.
